Test results from patent US7678815B2, “Thiazole-4-carboxyamide derivatives” (Hoffmann-La Roche Inc., priority 2005, dated 2010).

target: T1, human mGlu 5a receptor (Homo sapiens, UniProt P41594); test: [3H]MPEP competition binding on membranes of EBNA cells transfected with human mGlu 5a receptor; settings: competition with [3H]MPEP (2 nM), 1 h at 4° C., Ki=IC50/[1+L/Kd]
T1 construct: expressed in transfected cells; host or cells: EBNA cells (transient transfection), cell membrane homogenates
Procedure: The pharmacological activity of the compounds was tested using the following method: For binding experiments, cDNA encoding human mGlu 5a receptor was transiently transfected into EBNA cells using a procedure described by Schlaeger and Christensen [Cytotechnology 15:1-13 (1998)]. Cell membrane homogenates were stored at −80° C. until the day of assay where upon they were thawed and resuspended and polytronized in 15 mM Tris-HCl, 120 mM NaCl, 100 mM KCl, 25 mM CaCl2, 25 mM MgCl2 binding buffer at pH 7.4 to a final assay concentration of 20 μg protein/well.
Saturation isotherms were determined by addition of twelve [^3H]MPEP concentrations (0.04-100 nM) to these membranes (in a total volume of 200 μl) for 1 h at 4° C. Competition experiments were performed with a fixed concentration of [^3H]MPEP (2 nM) and IC50 values of test compounds evaluated using 11 concentrations (0.3-10,000 nM). Incubations were performed for 1 h at 4° C.
At the end of the incubation, membranes were filtered onto unifilter (96-well white microplate with bonded GF/C filter preincubated 1 h in 0.1% PEI in wash buffer, Packard Bio-Science, Meriden, Conn.) with a Filtermate 96 harvester (Packard BioScience) and washed 3 times with cold 50 mM Tris-HCl, pH 7.4 buffer. Nonspecific binding was measured in the presence of 10 μM MPEP. The radioactivity on the filter was counted (3 min) on a Packard Top-count microplate scintillation counter with quenching correction after addition of 45 μl of microscint 40 (Canberra Packard S.A., Zürich, Switzerland) and shaking for 20 min.
For binding experiments the Ki values of the compounds tested are given. The Ki value is defined by the following formula: Ki=IC50/[1+L/Kd] in which the IC50 values are those concentrations of the compounds tested which cause 50% inhibition of the competing radioligand ([^3H]MPEP). L is the concentration of radioligand used in the binding experiment and the Kd value of the radioligand is empirically determined for each batch of membranes prepared.

T1 sequence (P41594 21-1180 isoform P41594-2 limits assumed): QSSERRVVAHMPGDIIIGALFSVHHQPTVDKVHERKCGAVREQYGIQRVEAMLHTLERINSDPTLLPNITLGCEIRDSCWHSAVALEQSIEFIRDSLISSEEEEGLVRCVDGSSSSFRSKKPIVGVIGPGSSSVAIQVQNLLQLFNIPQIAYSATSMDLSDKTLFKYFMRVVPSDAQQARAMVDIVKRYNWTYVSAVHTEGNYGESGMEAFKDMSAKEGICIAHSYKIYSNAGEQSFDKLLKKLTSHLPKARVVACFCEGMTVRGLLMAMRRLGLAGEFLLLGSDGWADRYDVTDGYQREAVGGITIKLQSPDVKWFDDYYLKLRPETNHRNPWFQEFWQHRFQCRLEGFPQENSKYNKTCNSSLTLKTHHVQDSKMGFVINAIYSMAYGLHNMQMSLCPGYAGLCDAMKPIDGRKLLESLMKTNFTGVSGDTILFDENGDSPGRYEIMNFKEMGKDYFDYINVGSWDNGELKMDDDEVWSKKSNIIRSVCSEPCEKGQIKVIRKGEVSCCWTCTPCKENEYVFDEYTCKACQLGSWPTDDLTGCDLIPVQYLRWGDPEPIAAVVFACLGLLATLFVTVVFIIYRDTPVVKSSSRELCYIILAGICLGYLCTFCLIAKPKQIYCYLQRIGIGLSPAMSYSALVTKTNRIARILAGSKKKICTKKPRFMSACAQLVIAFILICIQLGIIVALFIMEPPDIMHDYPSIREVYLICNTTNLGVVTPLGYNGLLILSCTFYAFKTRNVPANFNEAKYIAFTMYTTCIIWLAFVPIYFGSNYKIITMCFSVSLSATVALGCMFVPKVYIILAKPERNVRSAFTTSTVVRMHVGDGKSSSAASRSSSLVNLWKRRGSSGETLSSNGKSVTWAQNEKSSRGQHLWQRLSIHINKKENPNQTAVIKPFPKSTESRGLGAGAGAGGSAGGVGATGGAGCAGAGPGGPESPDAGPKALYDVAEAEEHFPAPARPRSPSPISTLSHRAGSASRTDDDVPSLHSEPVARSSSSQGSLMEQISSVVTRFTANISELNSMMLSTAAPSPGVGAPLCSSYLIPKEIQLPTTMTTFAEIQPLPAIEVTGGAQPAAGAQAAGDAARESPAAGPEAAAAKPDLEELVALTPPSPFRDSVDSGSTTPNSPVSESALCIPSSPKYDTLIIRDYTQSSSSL

Ki | Structure (SMILES)
40 nM | Cc1nc(C(=O)Nc2cccc(Cl)c2)c(Nc2cccc(CNC(=O)OC(C)(C)C)c2)s1 [Example 145, {3-[4-(3-Chloro-phenylcarbamoyl)-2-methyl-thiazol-5-ylamino]-benzyl}-carbamic acid tert-butyl ester]
124 nM | O=C(Nc1cccc(Cl)c1)c1ncsc1Nc1cccnc1 [Example 2, 5-(Pyridin-3-ylamino)-thiazole-4-carboxylic acid (3-chloro-phenyl)-amide]
26 nM | Cc1cccc(NC(=O)c2ncsc2Nc2ccccc2)n1 [Example 13, 5-Phenylamino-thiazole-4-carboxylic acid (6-methyl-pyridin-2-yl)-amide]
29 nM | Cc1cccc(NC(=O)c2ncsc2Nc2cccnc2)n1 [Example 1, 5-(Pyridin-3-ylamino)-thiazole-4-carboxylic acid (6-methyl-pyridin-2-yl)-amide]
19 nM | Cc1csc(NC(=O)c2ncsc2Nc2cccc(C#N)c2)n1 [Example 81, 5-(3-Cyano-phenylamino)-thiazole-4-carboxylic acid (4-methyl-thiazol-2-yl)-amide]
53 nM | Cc1cccc(NC(=O)c2nc(C)sc2Nc2cccc(S(C)(=O)=O)c2)n1 [Example 149, 5-(3-Methanesulfonyl-phenylamino)-2-methyl-thiazole-4-carboxylic acid (6-methyl-pyridin-2-yl)-amide]
127 nM | CNc1scnc1C(=O)Nc1cccc(Cl)c1 [Example 24, 5-Methylamino-thiazole-4-carboxylic acid (3-chloro-phenyl)-amide]
458 nM | O=C(Nc1cccc(Cl)c1)c1ncsc1NC1CC1 [Example 18, 5-Cyclopropylamino-thiazole-4-carboxylic acid (3-chloro-phenyl)-amide]
40 nM | Cc1nccc(NC(=O)c2nc(C)sc2Nc2cccc(C(N)=O)c2)n1 [Example 209, 5-(3-Carbamoyl-phenylamino)-2-methyl-thiazole-4-carboxylic acid (2-methyl-pyrimidin-4-yl)-amide]
18 nM | CC(=O)c1cccc(Nc2scnc2C(=O)Nc2cccc(C)n2)c1 [Example 88, 5-(3-Acetyl-phenylamino)-thiazole-4-carboxylic acid (6-methyl-pyridin-2-yl)-amide]
99 nM | Cc1cccc(NC(=O)c2ncsc2Nc2c(C)noc2C)n1 [Example 74, 5-(3,5-Dimethyl-isoxazol-4-ylamino)-thiazole-4-carboxylic acid (6-methyl-pyridin-2-yl)-amide]
